Results on nine compounds are retold here after patent publication US9771341B2, “Piperazine carbamates and methods of making and using same” (Abide Therapeutics, Inc., priority 2015, dated 2017).

One may read the inhibition as the share of the control response that was lost under treatment. A word on the IC50: it is the concentration at which inhibition is half-maximal. Higher therefore signals weaker potency in that assay.

Test [1] addresses T1, MAGL (Mus musculus, UniProt O35678).
T1 construct: Proteomes (mouse brain membrane fraction or cell lysates); from tissue; host or cells: mouse brain membrane fraction (or unspecified cell lysates)
T1 sequence (O35678 1-303): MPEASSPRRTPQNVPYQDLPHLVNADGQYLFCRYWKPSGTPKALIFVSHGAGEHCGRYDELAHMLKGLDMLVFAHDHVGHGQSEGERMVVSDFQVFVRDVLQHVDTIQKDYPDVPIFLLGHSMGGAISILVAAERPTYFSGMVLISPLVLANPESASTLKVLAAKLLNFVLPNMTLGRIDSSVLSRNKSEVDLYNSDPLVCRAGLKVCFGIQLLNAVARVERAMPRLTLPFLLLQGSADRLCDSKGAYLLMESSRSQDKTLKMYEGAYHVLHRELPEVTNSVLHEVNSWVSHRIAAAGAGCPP
The test can be described thus: In vitro competitive activity-based protein profiling (mouse), MAGL. In kind it is biochemical. To be noted: for inhibition at 1 µM: mouse proteome, in vitro, read-out: % Inhibition at 1 μM MAGL; for IC50: mouse brain membrane fraction or cell lysates, 30 min preincubation at 37° C, FP-Rh probe. The protocol:
(§1) In Vitro Competitive Activity-Based Protein Profiling (Mouse).
(§2) Proteomes (mouse brain membrane fraction or cell lysates) (50 μL, 1.0 mg/mL total protein concentration) were preincubated with varying concentrations of inhibitors at 37° C. After 30 min, FP-Rh (1.0 μL, 50 μM in DMSO) was added and the mixture was incubated for another 30 min at 37° C. Reactions were quenched with SDS loading buffer (50 μL-4×) and run on SDS-PAGE.

Test [2] has as its target T2, ABHD6 (Mus musculus, UniProt Q8R2Y0).
T2 construct: Proteomes (mouse brain membrane fraction or cell lysates); from tissue; host or cells: mouse brain membrane fraction (or unspecified cell lysates)
T2 sequence (Q8R2Y0 1-336): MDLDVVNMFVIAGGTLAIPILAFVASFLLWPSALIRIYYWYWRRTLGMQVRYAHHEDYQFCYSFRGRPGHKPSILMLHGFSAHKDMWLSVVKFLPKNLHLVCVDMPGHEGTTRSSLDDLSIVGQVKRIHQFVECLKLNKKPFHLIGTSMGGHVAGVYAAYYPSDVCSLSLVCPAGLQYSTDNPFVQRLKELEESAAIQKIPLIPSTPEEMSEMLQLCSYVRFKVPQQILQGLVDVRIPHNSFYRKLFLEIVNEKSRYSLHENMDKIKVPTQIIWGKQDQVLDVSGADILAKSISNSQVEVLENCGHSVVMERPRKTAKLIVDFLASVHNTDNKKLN
Briefly: In vitro competitive activity-based protein profiling (mouse), ABHD6. In kind it is biochemical. To be noted: for inhibition at 1 µM: mouse proteome, in vitro, read-out: % Inhibition at 1 μM ABHD6; for IC50: mouse brain membrane fraction or cell lysates, 30 min preincubation at 37° C, FP-Rh probe. As for the experimental part: as §1, §2

The target in test [3] is T1, MAGL. The test can be described thus: Mouse brain proteomes from inhibitor treated mice, MAGL. The class given is in vivo. To be noted: 5 mg/kg oral gavage, C57Bl/6J mice, brain proteome 4 h after administration. As for the experimental part: (§3) Preparation of Mouse Brain Proteomes from Inhibitor Treated Mice.
(§4) Inhibitors were administered to wild-type C57Bl/6J by oral gavage in a vehicle of polyethylene glycol.

Test [4] addresses T2, ABHD6. Briefly: Mouse brain proteomes from inhibitor treated mice, ABHD6. The class given is in vivo. To be noted: 5 mg/kg oral gavage, C57Bl/6J mice, brain proteome 4 h after administration. The protocol:
as §3, §4

The target of test [5] is T3, FAAH (Mus musculus, UniProt O08914).
T3 construct: Proteomes (mouse brain membrane fraction or cell lysates); from tissue; host or cells: mouse brain membrane fraction (or unspecified cell lysates)
T3 sequence (O08914 1-579): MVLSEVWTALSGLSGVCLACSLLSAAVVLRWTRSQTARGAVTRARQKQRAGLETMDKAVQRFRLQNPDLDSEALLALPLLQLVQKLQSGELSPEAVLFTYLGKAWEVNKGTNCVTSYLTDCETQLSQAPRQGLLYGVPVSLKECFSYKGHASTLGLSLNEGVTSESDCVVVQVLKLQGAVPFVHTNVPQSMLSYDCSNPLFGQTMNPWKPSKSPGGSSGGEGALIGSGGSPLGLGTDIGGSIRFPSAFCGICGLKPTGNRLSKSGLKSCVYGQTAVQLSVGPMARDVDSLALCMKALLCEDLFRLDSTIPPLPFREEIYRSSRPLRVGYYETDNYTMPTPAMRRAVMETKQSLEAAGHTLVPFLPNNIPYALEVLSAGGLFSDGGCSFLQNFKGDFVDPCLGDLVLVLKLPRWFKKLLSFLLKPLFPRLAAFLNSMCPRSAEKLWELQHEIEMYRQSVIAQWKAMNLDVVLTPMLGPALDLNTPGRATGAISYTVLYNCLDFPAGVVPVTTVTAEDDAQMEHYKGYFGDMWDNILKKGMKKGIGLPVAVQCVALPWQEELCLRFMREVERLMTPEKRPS
Briefly: Mouse brain proteomes from inhibitor treated mice, FAAH. The class given is in vivo. To be noted: 5 mg/kg oral gavage, C57Bl/6J mice, brain proteome 4 h after administration. The protocol:
as §3
Inhibitors were administered to wild-type C57Bl/6J by oral gavage in a vehicle of polyethylene glycol. Each animal was sacrificed 4 h following administration and brain proteomes were prepared and analyzed according to previously established methods (See Niphakis, M. J., et al. (2011) ACS Chem. Neurosci. and Long, J. Z., et al. Nat. Chem. Biol. 5:37-44)

Test [6] concerns the target T3, FAAH. The test can be described thus: In vitro competitive activity-based protein profiling (mouse), FAAH. The settings on record: for inhibition at 1 µM: mouse proteome, in vitro; for IC50: mouse brain membrane fraction or cell lysates, 30 min preincubation at 37° C, FP-Rh probe. The class given is biochemical. The gist of the method: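 Competitive ABPP: inhibitor exposure (30 min, 37° C) of mouse brain membrane or lysate proteome at 1.0 mg/mL, then labelling with FP-Rh for another 30 min. Activity quantified by in-gel fluorescence of FAAH bands after SDS-PAGE.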

As to `CS(=O)(=O)N[C@@H]1CCN(c2cc(Cl)ccc2CN2CCN(C(=O)OC(C(F)(F)F)C(F)(F)F)CC2)C1` [Example 39, 1,1,1,3,3,3-hexafluoropropan-2-yl (R)-4-(4-chloro-2-(3-(methylsulfonamido)pyrrolidin-1-yl)benzyl)piperazine-1-carboxylate], the inhibition at 1 µM at MAGL [1] is more than 75%; at ABHD6 [2], 25 to 75%; on FAAH [6] it was less than 25%. Also, the values for the IC50 on MAGL [1], at ABHD6 [2] and on FAAH [6] were less than 100 nM, more than 1000 nM and more than 1000 nM, respectively. The inhibition at 5 mg/kg against MAGL [3] is more than 75%; against ABHD6 [4], 25 to 75%; at FAAH [5] it was less than 25%.
For the compound `CS(=O)(=O)N[C@H]1CCN(c2cc(Cl)ccc2CN2CCN(C(=O)OC(C(F)(F)F)C(F)(F)F)CC2)C1` [Example 40, 1,1,1,3,3,3-hexafluoropropan-2-yl (S)-4-(4-chloro-2-(3-(methylsulfonamido)pyrrolidin-1-yl)benzyl)piperazine-1-carboxylate], the inhibition at 1 µM at MAGL [1] was more than 75%; on ABHD6 [2], less than 25%; at FAAH [6], less than 25%. Also, the values for the IC50 on MAGL [1], at ABHD6 [2] and on FAAH [6] were less than 100 nM, more than 1000 nM and more than 1000 nM, respectively. The results for the inhibition at 5 mg/kg against MAGL [3], on ABHD6 [4] and on FAAH [5] were more than 75%, less than 25% and less than 25%, respectively.
`O=C(OC(C(F)(F)F)C(F)(F)F)N1CCN(Cc2ccc(Cl)cc2N2CC[C@@H](N3CCCC3=O)C2)CC1` [Example 41, 1,1,1,3,3,3-hexafluoropropan-2-yl (R)-4-(4-chloro-2-(2-oxo-[1,3′-bipyrrolidin]-1′-yl)benzyl)piperazine-1-carboxylate]: the inhibition at 1 µM on MAGL [1] is more than 75%; at ABHD6 [2] it was 25 to 75%; on FAAH [6] it was less than 25%. Also, the IC50 on MAGL [1] was less than 100 nM; on ABHD6 [2] it was more than 1000 nM; on FAAH [6], more than 1000 nM. In addition, the inhibition at 5 mg/kg at MAGL [3] was more than 75%; against ABHD6 [4], less than 25%; against FAAH [5], less than 25%.
With `O=C(OC(C(F)(F)F)C(F)(F)F)N1CCN(Cc2ccc(Cl)cc2N2CC[C@H](N3CCCC3=O)C2)CC1` [Example 42, 1,1,1,3,3,3-hexafluoropropan-2-yl (S)-4-(4-chloro-2-(2-oxo-[1,3′-bipyrrolidin]-1′-yl)benzyl)piperazine-1-carboxylate], the inhibition at 1 µM at MAGL [1] was more than 75%; at ABHD6 [2], 25 to 75%; on FAAH [6], less than 25%. Besides, the IC50 on MAGL [1] was less than 100 nM; on ABHD6 [2], 100 to 1000 nM; at FAAH [6] it was more than 1000 nM. In addition, the results for the inhibition at 5 mg/kg against MAGL [3], at ABHD6 [4] and on FAAH [5] were more than 75%, less than 25% and less than 25%, respectively.
`O=C(OC(C(F)(F)F)C(F)(F)F)N1CCN(Cc2ccc(Cl)cc2N2CC[C@@H](N3CCCCC3=O)C2)CC1` [Example 43, 1,1,1,3,3,3-hexafluoropropan-2-yl (R)-4-(4-chloro-2-(3-(2-oxopiperidin-1-yl)pyrrolidin-1-yl)benzyl)piperazine-1-carboxylate]: the inhibition at 1 µM on MAGL [1] was more than 75%; on ABHD6 [2] it was less than 25%; at FAAH [6], less than 25%. In addition, the values for the IC50 at MAGL [1], on ABHD6 [2] and on FAAH [6] were less than 100 nM, more than 1000 nM and more than 1000 nM, respectively. In addition, the inhibition at 5 mg/kg is 25 to 75% against MAGL [3], less than 25% against ABHD6 [4] and less than 25% on FAAH [5].
For the compound `O=C(OC(C(F)(F)F)C(F)(F)F)N1CCN(Cc2ccc(Cl)cc2N2CC[C@H](N3CCCCC3=O)C2)CC1` [Example 44, 1,1,1,3,3,3-hexafluoropropan-2-yl (S)-4-(4-chloro-2-(3-(2-oxopiperidin-1-yl)pyrrolidin-1-yl)benzyl)piperazine-1-carboxylate], the inhibition at 1 µM at MAGL [1] was more than 75%; on ABHD6 [2], less than 25%; at FAAH [6] it was less than 25%. The IC50 is less than 100 nM on MAGL [1], more than 1000 nM on ABHD6 [2] and more than 1000 nM at FAAH [6]. Besides, the inhibition at 5 mg/kg against MAGL [3], on ABHD6 [4] and against FAAH [5] was less than 25% each time.
As for `O=C(OC(C(F)(F)F)C(F)(F)F)N1CCN(Cc2ccc(Cl)cc2N2CC[C@@H](N3CCCS3(=O)=O)C2)CC1` [Example 45, 1,1,1,3,3,3-hexafluoropropan-2-yl (R)-4-(4-chloro-2-(3-(1,1-dioxidoisothiazolidin-2-yl)pyrrolidin-1-yl)benzyl)piperazine-1-carboxylate], the inhibition at 1 µM is more than 75% at MAGL [1], more than 75% at ABHD6 [2] and less than 25% on FAAH [6]. The figures for the IC50 at MAGL [1], at ABHD6 [2] and on FAAH [6] were less than 100 nM, 100 to 1000 nM and more than 1000 nM, respectively. The values for the inhibition at 5 mg/kg against MAGL [3], on ABHD6 [4] and against FAAH [5] were 25 to 75%, less than 25% and less than 25%, respectively.
In the case of `Cc1cccc(CN2CCN(C(=O)OC(C(F)(F)F)C(F)(F)F)CC2)c1N1CCC(NS(C)(=O)=O)CC1` [Example 51, 1,1,1,3,3,3-hexafluoropropan-2-yl 4-(3-methyl-2-(4-(methylsulfonamido)piperidin-1-yl)benzyl)piperazine-1-carboxylate], the inhibition at 1 µM at MAGL [1] was more than 75%; on ABHD6 [2], less than 25%; at FAAH [6], less than 25%. Besides, the IC50 on MAGL [1] is less than 100 nM; at ABHD6 [2], more than 1000 nM; at FAAH [6], more than 1000 nM. Moreover, the inhibition at 5 mg/kg on MAGL [3] is more than 75%; against ABHD6 [4], less than 25%; at FAAH [5] it was less than 25%.
As for `Cc1ccc(CN2CCN(C(=O)OC(C(F)(F)F)C(F)(F)F)CC2)c(N2CC[C@H](CF)C2)c1` [Example 53, 1,1,1,3,3,3-hexafluoropropan-2-yl (S)-4-(2-(3-(fluoromethyl)pyrrolidin-1-yl)-4-methylbenzyl)piperazine-1-carboxylate], the inhibition at 1 µM was more than 75% on MAGL [1], less than 25% at ABHD6 [2] and less than 25% on FAAH [6]. The IC50 is less than 100 nM on MAGL [1], more than 1000 nM at ABHD6 [2] and more than 1000 nM on FAAH [6]. The inhibition at 5 mg/kg was more than 75% at MAGL [3], less than 25% against ABHD6 [4] and less than 25% at FAAH [5].
